Results on 62 compounds are retold here after doi:10.1101/2022.03.12.484055v1 (biorxiv, 2022).

Structures are written as SMILES.

Usually inhibition stands for the percentage by which the read-out fell short of the control.

The target in one test is T1, ASIC1 (hASIC1; ASIC1a as primary isoform in tsA-201 cells) (Homo sapiens, UniProt P78348).
T1 sequence (P78348 1-528): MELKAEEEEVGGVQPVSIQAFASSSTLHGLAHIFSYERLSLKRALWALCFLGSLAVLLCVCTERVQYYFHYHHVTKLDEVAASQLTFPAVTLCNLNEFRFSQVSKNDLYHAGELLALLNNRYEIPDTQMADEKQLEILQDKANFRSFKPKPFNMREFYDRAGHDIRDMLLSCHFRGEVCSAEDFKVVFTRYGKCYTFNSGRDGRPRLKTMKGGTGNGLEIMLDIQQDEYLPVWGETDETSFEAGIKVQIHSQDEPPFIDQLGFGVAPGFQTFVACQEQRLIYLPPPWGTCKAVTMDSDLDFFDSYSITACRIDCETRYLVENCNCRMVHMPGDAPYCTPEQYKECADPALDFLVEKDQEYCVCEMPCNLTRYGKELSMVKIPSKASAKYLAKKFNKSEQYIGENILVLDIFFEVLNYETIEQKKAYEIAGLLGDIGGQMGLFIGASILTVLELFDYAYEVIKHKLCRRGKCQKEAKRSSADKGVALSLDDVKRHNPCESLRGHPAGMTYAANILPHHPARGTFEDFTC
In words: cell-based. The following applies: tsA201, read-out: % inhibition @ 30 µM.
As to `N=C(N)NC(=O)c1nc(-c2cc3ncccc3o2)c(N)nc1N` [compound 37, 37], the inhibition at 30 µM was determined as 17%. As for `N=C(N)NC(=O)c1nc(-c2ccco2)c(N2CCCCCC2)nc1N` [compound 15, 15], the inhibition at 30 µM came out at 46%. Same read-out and setting: then `N=C(N)NC(=O)c1nc(-c2cc3cnccc3o2)c(N)nc1N` [compound 39, 39], with 36%; and `N=C(N)NC(=O)c1nc(-c2ccc3occc3c2)c(N2CCCCCC2)nc1N` [compound 44, 44], with 23%. On the same count and under the same terms, to `N=C(N)NC(=O)c1nc(-c2ccc3occc3c2)c(N)nc1N` [compound 43, 43] belongs 59%. Still for that read-out and setting: then `N=C(N)NC(=O)c1nc(-c2cc3cc(Br)ccc3o2)c(N2CCCCCC2)nc1N` [compound 28, 28], with 59%; and `N=C(N)NC(=O)c1nc(-c2cc3ccccc3o2)c(N2CCCCCC2)nc1N` [compound 17], with 64%; and `N=C(N)NC(=O)c1nc(-c2ccc3c(c2)CCO3)c(N2CCCCCC2)nc1N` [compound 42, 42], with 49%.

Regarding `N=C(N)NC(=O)c1nc(-c2cc3cc(Cl)ccc3o2)c(N2CCCCCC2)nc1N` [compound 26, 26], the inhibition at 30 µM was found to be 35%. On the same count and under the same terms, to `Cc1ccc2oc(-c3nc(C(=O)NC(=N)N)c(N)nc3N)cc2c1` [compound 20, 20] belongs 65%; to `COc1ccc2cc(-c3nc(C(=O)NC(=N)N)c(N)nc3N)oc2c1` [compound 33, 33], 68%.

As to `N#Cc1ccc2oc(-c3nc(C(=O)NC(=N)N)c(N)nc3N3CCCCCC3)cc2c1` [compound 32, 32], the inhibition at 30 µM turned out to be 64%.

With `COc1ncc(-c2nc(C(=O)NC(=N)N)c(N)nc2N)cn1` [compound 46], the inhibition at 30 µM stood at 34%.

Consider `N=C(N)NC(=O)c1nc(-c2cc3cc(F)cc(F)c3o2)c(N2CCCCCC2)nc1N` [compound 36, 36], for which the inhibition at 30 µM was found to be 69%. Turning to `N=C(N)NC(=O)c1nc(-c2cc3cc(Cl)ccc3o2)c(N)nc1N` [compound 25, 25], the inhibition at 30 µM was determined as 69%. For `N=C(N)NC(=O)c1nc(-c2cc3cc(Br)ccc3o2)c(N)nc1N` [compound 27, 27], the inhibition at 30 µM is 45%. Still for that read-out and setting: to `N=C(N)NC(=O)c1nc(-c2cc3cc(F)ccc3o2)c(N2CCCCCC2)nc1N` [compound 24, 24] belongs 58%; to `N=C(N)NC(=O)c1nc(-c2ccc3c(c2)CCO3)c(N)nc1N` [compound 41, 41], 22%; to `N=C(N)NC(=O)c1nc(-c2ccc(C(F)(F)F)cc2)c(N)nc1N` [compound 48, 48], 44%. Consider `COc1ncc(-c2nc(C(=O)NC(=N)N)c(N)nc2N2CCCCCC2)cn1` [compound 47], for which the inhibition at 30 µM stood at 33%.

Consider `N=C(N)NC(=O)c1nc(Cl)c(N)nc1N` [compound 11, amiloride], for which the inhibition at 30 µM was 88%. In the case of `N=C(N)NC(=O)c1nc(-c2cc3cnccc3o2)c(N2CCCCCC2)nc1N` [compound 40, 40], the inhibition at 30 µM worked out at 21%.

`COc1ccc2oc(-c3nc(C(=O)NC(=N)N)c(N)nc3N3CCCCCC3)cc2c1` [compound 30, 30]: the inhibition at 30 µM was found to be 35%.

Consider `N#Cc1ccc2oc(-c3nc(C(=O)NC(=N)N)c(N)nc3N)cc2c1` [compound 31, 31], for which the inhibition at 30 µM came out at 30%. `Cn1cc(-c2nc(C(=O)NC(=N)N)c(N)nc2N2CCCCCC2)cn1` [compound 50, 50]: the inhibition at 30 µM stood at 53%. `N=C(N)NC(=O)c1nc(-c2cc3ncccc3o2)c(N2CCCCCC2)nc1N` [compound 38, 38]: the inhibition at 30 µM is 20%. Still for that read-out and setting: then `N=C(N)NC(=O)c1nc(-c2cc3ccccc3s2)c(N2CCCCCC2)nc1N` [compound 19, 19], with 67%; and `N=C(N)NC(=O)c1nc(-c2ccc(C(F)(F)F)cc2)c(N2CCCCCC2)nc1N` [compound 49, 49], with 67%. Same read-out and setting: then `CC(C)(C)c1ccc2oc(-c3nc(C(=O)NC(=N)N)c(N)nc3N3CCCCCC3)cc2c1` [compound 22, 22], with 44%.

As for `N=C(N)NC(=O)c1nc(Cl)c(N2CCCCCC2)nc1N` [compound 13, HMA], the inhibition at 30 µM turned out to be 79%. Same read-out and setting: then `N=C(N)NC(=O)c1nc(-c2cc3ccccc3s2)c(N)nc1N` [compound 18, 18], with 45%; and `N=C(N)NC(=O)c1nc(-c2cncnc2)c(N2CCCCCC2)nc1N` [compound 45, 45], with 25%.

For the next test, the target named is T1, ASIC1 (hASIC1; ASIC1a as primary isoform in tsA-201 cells). In words: cell-based. The following applies: tsA201, read-out: % inhibition @ 30 µM. This is another data set of the same source.
Turning to `N=C(N)NC(=O)c1nc(-c2cc3ccccc3o2)c(NC2CCCCCC2)nc1N` [compound 64, 64], the inhibition at 30 µM is 10%. For `N=C(N)NC(=O)c1nc(-c2cc3ccccc3o2)c(NCCc2ccccc2)nc1N` [compound 66, 66], the inhibition at 30 µM was 31%. Take `N=C(N)NC(=O)c1nc(-c2cc3ccccc3o2)c(NC2CCCC2)nc1N` [compound 63, 63]: the inhibition at 30 µM came to 22%.

Another test shares this target. As to the kind of experiment: cell-based. The following applies: tsA201, read-out: % inhibition @ 30 µM. This is another data set of the same source.
In the case of `CN(C)CCC(=O)c1nc(-c2cc3ccccc3o2)c(N2CCCCCC2)nc1N` [compound 72, 72], the inhibition at 30 µM was 31%. As for `Nc1noc(-c2nc(-c3cc4ccccc4o3)c(N3CCCCCC3)nc2N)n1` [compound 71, 71], the inhibition at 30 µM was determined as 8%. Same read-out and setting: to `N=C(N)NC(=O)c1nc(-c2cnc(N)nc2)c(N2CCCCCC2)nc1N` [compound 73, 73] belongs 6%. With `N=C(N)NC(=O)c1nc(-c2cnc(NCCO)nc2)c(N2CCCCCC2)nc1N` [compound 76, 76], the inhibition at 30 µM came out at 6%. Same read-out and setting: to `CN(C)C(=O)c1nc(-c2cc3ccccc3o2)c(N2CCCCCC2)nc1N` [compound 69, 69] belongs 10%. Still for that read-out and setting: then `COC(=O)c1nc(-c2cc3ccccc3o2)c(N2CCCCCC2)nc1N` [compound 67, 67], with 9%. For `Nc1nnc(-c2nc(-c3cc4ccccc4o3)c(N3CCCCCC3)nc2N)[nH]1` [compound 70, 70], the inhibition at 30 µM came out at 15%. The same measure, in the same setting: then `Nc1nc(N2CCCCCC2)c(-c2cc3ccccc3o2)nc1C(=O)O` [compound 68, 68], with 6%. On the same count and under the same terms, then `CNc1ncc(-c2nc(C(=O)NC(=N)N)c(N)nc2N2CCCCCC2)cn1` [compound 74, 74], with 27%; and `CC(C)Nc1ncc(-c2nc(C(=O)NC(=N)N)c(N)nc2N2CCCCCC2)cn1` [compound 75, 75], with 11%.

For a further test the target is unchanged. In words: cell-based. The following applies: tsA201, read-out: % inhibition @ 30 µM. This is another data set of the same source.
In the case of `N=C(N)NC(=O)c1ccccc1` [compound 92, 92], the inhibition at 30 µM was determined as 22%. With `N=C(N)NC(=O)c1ccccn1` [compound 93, 93], the inhibition at 30 µM came to 22%. Take `N#CCCNc1nc(N)c(C(=O)NC(=N)N)nc1Cl` [compound 89]: the inhibition at 30 µM was found to be 80%.

Take `N=C(NC(=O)c1nc(Cl)c(N)nc1N)Nc1ccccc1` [compound 96, 96]: the inhibition at 30 µM came to 94%. As to `N=C(N)NC(=O)c1nc(I)c(N)nc1N` [compound 97], the inhibition at 30 µM was 95%. With `N=C(N)NC(=O)c1nc(Cl)c(NCCc2ccccc2)nc1N` [compound 88], the inhibition at 30 µM stood at 91%. The same measure, in the same setting: then `Cc1ccc(S(=O)(=O)NCCNc2nc(N)c(C(=O)NC(=N)N)nc2Cl)cc1` [compound 91], with 79%. On the same count and under the same terms, to `CC(C)c1ccc(C(=O)NC(=N)N)cc1S(C)(=O)=O` [compound 95, 95] belongs 37%; to `N=C(N)NC(=O)c1nc(Cl)c(NCCP(=O)(O)O)nc1N` [compound 90, 90], 81%; to `N=C(N)NC(=O)c1nc(Cl)c(NCc2ccccc2)nc1N` [compound 87], 90%.

The target is the same in another test. In words: cell-based. The following applies: tsA201, read-out: % inhibition @ 30 µM. The source holds these as a separate data set.
Regarding `N=C(N)NC(=O)c1nc(Cl)c(N2CCCOCC2)nc1N` [compound 83, 83], the inhibition at 30 µM stood at 67%. The same measure, in the same setting: then `N=C(N)NC(=O)c1nc(Cl)c(N2CCOCC2)nc1N` [compound 80, 80], with 75%; and `COc1ncc(-c2nc(C(=O)NC(=N)N)c(N)nc2N2CCCOCC2)cn1` [compound 85, 85], with 8%. As to `N=C(N)NC(=O)c1nc(-c2cncnc2)c(N2CCCOCC2)nc1N` [compound 84, 84], the inhibition at 30 µM was found to be 14%. Same read-out and setting: then `N=C(N)NC(=O)c1nc(-c2ccc(C(F)(F)F)cc2)c(C2CC2)nc1N` [compound 79, 79], with 65%. With `N=C(N)NC(=O)c1nc(-c2cc3ccccc3o2)c(N2CCCOCC2)nc1N` [compound 86, 86], the inhibition at 30 µM turned out to be 26%. On to `N=C(N)NC(=O)c1nc(-c2ccc(C(F)(F)F)cc2)c(N2CCCC2)nc1N` [compound 78, 78], for which the inhibition at 30 µM was 78%.
